According to patent US8772235B2, “Compounds having peptides conjugated to bone targeting moieties and methods of making and using thereof” (The Governors of the University of Alberta, priority 2009, dated 2014):

Assays:
[1] = Circular dichroism, secondary structure of sCT, sCT-SMCC and sCT-BP; format: physicochemical; settings: 20 mM acetate buffer pH 5.0, 400 μg/mL sCT or equivalent
Procedure: For a more detailed analysis of the influence of BP coupling on secondary structural confirmation of sCT, the circular dichroism (CD) spectrum of sCT, sCT-SMCC and sCT-BP was measured in the 20 mM acetate buffer pH 5.0. CD spectra were obtained with a ConvCD spectrophotometer instrument. Spectra were acquired over a wavelength range of 190 to 260 nm. The N2 flow rate was set at 5 l/min. The sample cuvette was cleaned with 20 mM Sodium Acetate buffer pH 5, and the spectra of test samples, which comprised of 400 μg/mL of sCT or equivalent the same buffer, were recorded with the corresponding buffer serving as blanks.

[2] = Effect on plasma calcium level in normal rats (PEG series); format: in vivo, rat; settings: 20 IU sCT/kg equivalent, subcutaneous
Procedure: (§1) Pharmacodynamic response of sCT analogue was evaluated by analyzing plasma calcium concentration in the rat model. Sprague Dawley female rats weighing 230-260 g (about 6 weeks old) were purchased from Charles River, USA and housed at the University of Alberta Animal Holding Unit. All experimental protocols were approved by the Animals Ethics Committee of the University of Alberta. The rats were divided randomly into five groups of 3 animals each and the pharmacodynamic response was assessed following subcutaneous administration of the sCT or analogue equivalent to 20 IU sCT/kg body weight. Rats were anesthetized using Isoflurane inhalation anesthesia and the 200 μl blood samples were obtained in heparinized Eppendorf microtubes before drug injection. Then 100 μl of sCT or equivalent dose in 20 mM Sodium Acetate buffer pH 5 was injected and the blood samples were collected 1, 2, 3 and 4 hrs post injection from jugular vein. Blood plasma was obtained by centrifuging the samples at 5000 rpm for 10 min and collecting the supernatant. Plasma calcium level was assayed by QuantiChrom™ Calcium Assay Kit (BioAssay Systems, CA USA) and the plasma phosphate level was assayed by QuantiChrom™ Phosphate Assay Kit (BioAssay Systems, CA USA).

[3] = Circular dichroism, secondary structure of sCT, sCT-PEG and sCT-PEG-BP; format: physicochemical; settings: 20 mM acetate buffer pH 5.0, ~400 μg/mL sCT or equivalent
Procedure: For a more detailed analysis of the influence of structural alteration of sCT on secondary structure of sCT analogue, the circular dichroism (CD) spectrum of sCT, sCT-PEG and sCT-PEG-BP was measured in the 20 mM acetate buffer pH 5.0. CD spectra were obtained with a ConvCD spectrophotometer instrument. Spectra were acquired over a wavelength range of 190 to 260 nm. The N2 flow rate was set at 5 l/min. The sample cuvette (100 μL) was cleaned with 20 mM Sodium Acetate buffer pH 5, and the spectra of test samples, which comprised of ˜400 μg/mL of sCT or equivalent the same buffer, were recorded with the corresponding buffer serving as blanks.

[4] = Effect on plasma phosphate level in normal rats (SMCC series); format: in vivo, rat; settings: 20 IU sCT/kg equivalent, subcutaneous
Procedure: as §1, with “5 was sub cu injected and” for “5 was injected and”

[5] = first hour, vs acetate buffer controls

Substance: Salmon calcitonin [sCT, reference compound]
- secondary structure by CD spectrum [1]: random coil conformation
- percentage of plasma calcium reduction ([2]; 4 hour post dosing): 33.1±2.1%
- percentage of plasma calcium reduction [2, 5]: 20.4±5.5%
- percentage of plasma calcium reduction ([2]; second hour): 29.9±4.9%
- secondary structure by CD spectrum [3]: random coil conformation
- percentage of plasma phosphate reduction ([4]; 4 hour post dosing): 14.69±3.71%
- percentage of plasma phosphate reduction [4, 5]: 11.91±6.24%
- percentage of plasma phosphate reduction ([4]; second hour): 11.64±13.01%
